Blank lines part the entries; values can stand above or below the compound they belong to.
How the values were obtained:
[1] = molecular target: T1, TNIK (Homo sapiens (Human), UniProt Q9UKE5); experiment: In vitro TNIK kinase assay using qPCR (competition binding with liganded affinity beads); conditions: compound at 1 μM; kinase in eluate measured by qPCR
Experimental: 1. Efficacy of Inhibiting TNIK Activity, In Vitro TNIK Kinase Assay Using qPCR
For most assays, kinase-tagged T7 phage strains were grown in parallel in 24-well blocks in an E. coli host derived from the BL21 strain. E. coli were grown to log-phase and infected with T7 phage from a frozen stock (multiplicity of infection=0.4) and incubated with shaking at 32° C. until (90-150 minutes). The lysates were centrifuged (6,000×g) and filtered (0.2 μm) to remove cell debris. The remaining kinases were produced in HEK-293 cells and subsequently tagged with DNA for qPCR detection. Streptavidin-coated magnetic beads were treated with biotinylated small molecule ligands for 30 minutes at room temperature to generate affinity resins for kinase assays. The liganded beads were blocked with excess biotin and washed with blocking buffer (SeaBlock (Pierce), 1% BSA, 0.05% Tween 20, 1 mM DTT) to remove unbound ligand and to reduce non-specific phage binding. Binding reactions were assembled by combining kinases, liganded affinity beads, and test compounds in 1× binding buffer (20% SeaBlock, 0.17×PBS, 0.05% Tween 20, 6 mM DTT). Test compounds were prepared as 40× stocks in 100% DMSO and directly diluted into the assay. All reactions were performed in polypropylene 384-well plates in a final volume of 0.04 ml.
The assay plates were incubated at room temperature with shaking for 1 hour and the affinity beads were washed with wash buffer (1×PBS, 0.05% Tween 20). The beads were then re-suspended in elution buffer (1×PBS, 0.05% Tween 20, 0.5 μM non-biotinylated affinity ligand) and incubated at room temperature with shaking for 30 minutes. The kinase concentration in the eluates was measured by qPCR.

[2] = system: SW480 cells; experiment: Cell viability assay (CCK-8) using SW480 cell; assay type: cell-based; conditions: Homo sapiens, 48 h exposure
Experimental: (§1) 3. Efficacy of Inhibiting Cancer Cells Using Colon Cancer Cell Lines
(§2) The human colon cancer cell line SW480 (Catalog No. CCL-228) and SW620 (Catalog No. CCL-227) were obtained from the American Type Culture Collection (ATCC), and maintained in DMEM (Thermo Fisher Scientific Inc., Waltham, Mass., USA) supplemented with 10% fetal bovine serum (FBS) (Thermo Fisher Scientific Inc., Waltham, Mass.), 100 U/ml penicillin, and 100 µg/ml streptomycin (Gibco, Gaithersburg, Md.). Cells were grown at 37° C. in 5% CO2 for confluence.
(§3) Cell viability was measured using the Cell Counting Kit-8 (Dojindo Molecular Technologies). SW480 and SW620 cells (2.5×10^4 cells/well) were seeded in 96-well plates and incubated for 24 h. After incubation, the cells were exposed to serially diluted compounds (0.1, 0.3, 1, 3, 10 and 30 µM) in 100 μl phenol free DMEM medium containing 0.1% FBS. After 48 h, CCK-8 reagent was added at 10 μl per well and incubated for 1 h at 37° C. Optical density was measured at 450 nm using a microplate reader (Bio-Rad Laboratories, Hercules, Calif.). The IC50 values were calculated using GraphPad Prism software (GraphPad Software Inc., La Jolla, Calif., USA) to determine kit performance. Experiments were performed in triplicate.

[3] = system: SW620 cells; experiment: Cell viability assay (CCK-8) using SW620 cell; assay type: cell-based; conditions: Homo sapiens, SW-620, 48 h exposure
Experimental: as §1, §2, §3

[4] = molecular target: T1, TNIK; experiment: In vitro TNIK kinase assay using ADP-Glo Kinase Assay system; assay type: biochemical; conditions: 100 μM ATP, MBP substrate; for IC50: 37° C. 30 min; for inhibition at 1 µM: compound at 1 μM
Experimental: 2. Efficacy of Inhibiting TNIK Activity, In Vitro TNIK Kinase Assay Using ADP-Glo™ Kinase Assay System
The inhibitory properties of compounds were evaluated with TNIK kinase enzyme system and luminescent ADP-Glo ? Kinase Assay from Promega Corporation according to the manufacturer's protocol. The tested compounds were incubated with TNIK kinases. Reactions were performed in 10 μl kinase buffer supplemented with reaction mixture containing 2 μl ATP, 2 μl MBP protein and 2 μl TNIK at 37° C. for 30 min. After kinase reaction, 5 μl reaction mixtures were transferred to 384 well assay plate (Greiner, solid white low-binding plates). Next, 5 μl of ADP-Glo Reagent was added to each well and incubated at 37° C. for 30 min. After 45 min, 10 μl Kinase Detection Reagent was added to each well and luminescence signal was detected with the SpectraMax M5e Microplate Reader (Molecular Devices, Menlo Park, Calif.) after 30 min at 37° C. incubation. The IC50 values were calculated using GraphPad Prism software (GraphPad Software Inc., La Jolla, Calif., USA) to determine kit performance. To the cut-off assay, the inhibitory activity of the compounds against TNIK kinase was expressed as the percentage of the kinase inhibitory activity for an indicated concentration of inhibitor. The IC s of the compounds against TNIK kinase values were calculated a log-concentration-response curve fitted with a four-parameter logistic equation and expressed dose-response curve for % of inhibitory activity versus log of the compound concentration.

T1 sequence (Q9UKE5 whole entry): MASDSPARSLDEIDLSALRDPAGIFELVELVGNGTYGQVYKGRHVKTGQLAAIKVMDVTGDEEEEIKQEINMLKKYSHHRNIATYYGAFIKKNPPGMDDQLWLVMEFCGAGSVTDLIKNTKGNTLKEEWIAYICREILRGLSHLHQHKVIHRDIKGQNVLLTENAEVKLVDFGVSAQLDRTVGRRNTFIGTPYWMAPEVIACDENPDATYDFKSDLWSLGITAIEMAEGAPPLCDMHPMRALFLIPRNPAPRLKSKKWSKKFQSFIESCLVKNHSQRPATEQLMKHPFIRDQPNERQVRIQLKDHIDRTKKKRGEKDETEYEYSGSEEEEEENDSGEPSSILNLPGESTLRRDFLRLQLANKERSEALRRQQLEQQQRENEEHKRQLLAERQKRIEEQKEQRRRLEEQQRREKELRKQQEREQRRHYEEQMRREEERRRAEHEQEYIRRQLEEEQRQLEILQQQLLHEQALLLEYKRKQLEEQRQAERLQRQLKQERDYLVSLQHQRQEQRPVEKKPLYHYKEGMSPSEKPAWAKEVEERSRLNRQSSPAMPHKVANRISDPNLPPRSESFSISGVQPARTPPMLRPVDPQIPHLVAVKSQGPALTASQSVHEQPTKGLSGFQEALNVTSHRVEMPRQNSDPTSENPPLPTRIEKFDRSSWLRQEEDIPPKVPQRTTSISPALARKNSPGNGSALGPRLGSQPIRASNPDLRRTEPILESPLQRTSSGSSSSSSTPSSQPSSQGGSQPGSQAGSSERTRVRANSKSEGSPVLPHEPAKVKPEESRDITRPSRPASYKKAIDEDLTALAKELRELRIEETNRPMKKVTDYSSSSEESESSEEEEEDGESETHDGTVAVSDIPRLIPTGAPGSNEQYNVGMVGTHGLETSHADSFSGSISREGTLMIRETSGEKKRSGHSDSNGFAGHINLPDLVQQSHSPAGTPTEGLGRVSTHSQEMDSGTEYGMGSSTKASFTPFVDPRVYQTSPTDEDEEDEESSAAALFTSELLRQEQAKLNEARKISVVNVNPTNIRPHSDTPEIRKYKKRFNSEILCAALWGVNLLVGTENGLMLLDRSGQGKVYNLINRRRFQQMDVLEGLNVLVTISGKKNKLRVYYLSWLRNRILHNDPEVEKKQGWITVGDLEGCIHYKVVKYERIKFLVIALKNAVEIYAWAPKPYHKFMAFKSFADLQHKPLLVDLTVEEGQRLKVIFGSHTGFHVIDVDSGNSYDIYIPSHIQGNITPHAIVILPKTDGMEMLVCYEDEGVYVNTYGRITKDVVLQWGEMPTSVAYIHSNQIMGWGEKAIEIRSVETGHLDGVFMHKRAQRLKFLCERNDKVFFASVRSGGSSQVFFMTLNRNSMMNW

Structure (SMILES): COc1ccc(-c2cc(Nc3ccc4[nH]ccc4c3)n[nH]2)cc1 [Compound 1, N-(5-(4-methoxyphenyl)-1H-pyrazol-3-yl)-1H-indol-5-amine]
- activity at 1 µM [1]: 16%

Structure (SMILES): COc1ccc(-c2cc(Nc3ccc4[nH]ncc4c3)n[nH]2)cc1 [Compound 2, N-(5-(4-methoxyphenyl)-1H-pyrazol-3-yl)-1H-indazol-5-amine]
- IC50 [2]: 4.5 µM
- IC50 [3]: 1.2 µM
- activity at 1 µM [1]: 21%
- IC50 [4]: 94 nM
- inhibition at 1 µM [4]: 99%

Structure (SMILES): COc1ccc(-c2cc(Nc3ccc4[nH]c(=O)[nH]c4c3)n[nH]2)cc1 [Compound 3, 5-((5-(4-methoxyphenyl)-1H-pyrazol-3-yl)amino)-1,3-dihydro-2H-benzo[d]imidazol-2-one]
- activity at 1 µM [1]: 7%
- inhibition at 1 µM [4]: 79%

Structure (SMILES): COc1ccc(-c2cc(Nc3ccc4cn[nH]c4c3)n[nH]2)cc1 [Compound 4, N-(5-(4-methoxyphenyl)-1H-pyrazol-3-yl)-1H-indazol-6-amine]
- activity at 1 µM [1]: 8%

Structure (SMILES): O=C1CCc2cc(Nc3cc(-c4ccc(O)cc4)[nH]n3)ccc2N1 [Compound 6, 6-((5-(4-hydroxyphenyl)-1H-pyrazol-3-yl)amino)-3,4-dihydroquinolin-2(1H)-one]
- IC50 [4]: 62 nM
- inhibition at 1 µM [4]: 96%

Structure (SMILES): O=C1COc2cc(Nc3cc(-c4ccc(O)cc4)[nH]n3)ccc2N1 [Compound 14, 7-((5-(4-hydroxyphenyl)-1H-pyrazol-3-yl)amino)-2H-benzo[b][1,4]oxazin-3(4H)-one]
- inhibition at 1 µM [4]: 97%

Structure (SMILES): Cc1nc2cc(Nc3cc(-c4ccc(-n5cccn5)cc4)[nH]n3)ccc2[nH]1 [Compound 18, N-(5-(4-(1H-pyrazol-1-yl)phenyl)-1H-pyrazol-3-yl)-2-methyl-1H-benzo[d]imidazol-5-amine]
- IC50 [2]: 21 µM
- IC50 [3]: 3.4 µM
- IC50 [4]: 96 nM
- inhibition at 1 µM [4]: 99%

Further compounds by falling IC50 [4], results first:

- IC50 [4]: 55 nM
- inhibition at 1 µM [4]: 99%
Structure (SMILES): c1cnn(-c2ccc(-c3cc(Nc4ccc5[nH]ncc5c4)n[nH]3)cc2)c1 [Compound 10, N-(5-(4-(1H-pyrazol-1-yl)phenyl)-1H-pyrazol-3-yl)-1H-indazol-5-amine]

- IC50 [3]: 13 µM
- IC50 [4]: 45 nM
- inhibition at 1 µM [4]: 93%
Structure (SMILES): Oc1ccc(-c2cc(Nc3ccc4[nH]ncc4c3)n[nH]2)cc1F [Compound 12, 4-(3-((1H-indazol-5-yl)amino)-1H-pyrazol-5-yl)-2-fluorophenol]

- IC50 [4]: 29 nM
- inhibition at 1 µM [4]: 94%
Structure (SMILES): Oc1ccc(-c2cc(Nc3ccc4[nH]ncc4c3)n[nH]2)cc1 [Compound 11, 4-(3-((1H-indazol-5-yl)amino)-1H-pyrazol-5-yl)phenol]

- IC50 [4]: 7 nM
- inhibition at 1 µM [4]: 90%
Structure (SMILES): O=C1COc2cc(Nc3cc(-c4ccc(-n5cccn5)cc4)[nH]n3)ccc2N1 [Compound 13, 7-((5-(4-(1H-pyrazol-1-yl)phenyl)-1H-pyrazol-3-yl)amino)-2H-benzo[b][1,4]oxazin-3(4H)-one]

- IC50 [4]: 1 nM
Structure (SMILES): O=C1CCc2cc(Nc3cc(-c4ccc(-n5cccn5)cc4)[nH]n3)ccc2N1 [Compound 7, 6-((5-(4-(1H-pyrazol-1-yl)phenyl)-1H-pyrazol-3-yl)amino)-3,4-dihydroquinolin-2(1H)-one]

- IC50 [4]: 1 nM
- inhibition at 1 µM [4]: 88%
Structure (SMILES): O=C1Cc2cc(Nc3cc(-c4ccc(O)c(F)c4)[nH]n3)ccc2N1 [Compound 8, 5-((5-(3-fluoro-4-hydroxyphenyl)-1H-pyrazol-3-yl)amino)indolin-2-one]

- IC50 [4]: 1 nM
- inhibition at 1 µM [4]: 98%
Structure (SMILES): O=C1CCc2cc(Nc3cc(-c4ccc(-n5ccnc5)cc4)[nH]n3)ccc2N1 [Compound 9, 6-((5-(4-(1H-imidazol-1-yl)phenyl)-1H-pyrazol-3-yl)amino)-3,4-dihydroquinolin-2(1H)-one]

Source: patent publication US11447469B2, “Hetero ring-fused phenyl compounds for inhibiting TNIK and medical uses thereof” (Korea Research Institute of Chemical Technology, priority 2018, dated 2022)
